# Assay results as given in patent US9023789B2, “Amylin analogs and pharmaceutical compositions thereof” (Novo Nordisk A/S, priority 2012, dated 2015).
# Numbered stars: 1 amine (or outer) side, 2 acyl side, 3 side chain; on linkers, the order of the positions; unused ones are H or OH. Bridge positions count the residues as written; N and C are the ends. Side chains are listed from the residue outwards. Peptide text beside a SMILES is read from it. * marks the point of attachment. C20 diacid = O=C(O)CCCCCCCCCCCCCCCCCCC(=O)*; γGlu = O=C(O)[C@H](CCC(=O)[*:2])N[*:1]; AEEA = NCCOCCOCC(=O)O
# Legend:
# [1] = system: Sprague Dawley (SD) rats; assay: ASSAY (I) efficacy testing on appetite (food intake) using an ad libitum fed rat model; assay type: in vivo; settings: rat, 30 nmol/kg
# Summary of the method: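 Individual food consumption was logged each hour up to 7 h and again at 24 h, occasionally 48 h, with Grubbs-test outliers removed. Each 200–250 g Sprague Dawley rat, free-feeding in its home cage under reversed lighting, received a single ip, po or sc dose of 0.01–3 mg/kg at lights-off, alongside a vehicle group.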
# [2] = ASSAY (III) ThT fibrillation assay for physical stability; assay type: physicochemical
# Summary of the method: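 Physical stability scored by ThT fluorescence (444 nm excitation, 485 nm emission) tracked every 20 min during 37 °C incubation with 960 rpm shaking, ThT at 1 μM final. Values are replicate means with SD at chosen times; HPLC against pramlintide standard gives initial and post-assay soluble concentrations.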
# [3] = molecular target: T1, human calcitonin receptor (Homo sapiens, UniProt P30988); assay: ASSAY (VII) binding to the human calcitonin receptor (SPA, 125I-Calcitonin); settings: read-out: hCTR bind IC50;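 also: cell membranes (35 ng/µL) combined with SPA beads in 40 µL of pH 7.4 Hepes buffer, 384-well format, signal counted on a TopCounter instrument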
# T1 construct: expressed in transfected cells
# T1 sequence (P30988 25-474): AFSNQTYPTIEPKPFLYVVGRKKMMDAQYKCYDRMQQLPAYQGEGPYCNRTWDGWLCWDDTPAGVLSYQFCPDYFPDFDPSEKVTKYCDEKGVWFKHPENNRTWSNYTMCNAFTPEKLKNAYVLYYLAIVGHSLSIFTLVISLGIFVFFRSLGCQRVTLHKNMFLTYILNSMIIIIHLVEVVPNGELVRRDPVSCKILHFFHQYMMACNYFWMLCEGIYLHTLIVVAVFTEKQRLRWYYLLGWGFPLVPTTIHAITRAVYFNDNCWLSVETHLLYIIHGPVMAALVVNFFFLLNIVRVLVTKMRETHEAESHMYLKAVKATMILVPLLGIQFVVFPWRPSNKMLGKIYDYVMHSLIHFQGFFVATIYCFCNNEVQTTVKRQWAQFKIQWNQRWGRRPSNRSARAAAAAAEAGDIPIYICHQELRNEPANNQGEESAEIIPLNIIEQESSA
Compound,ThT pH 4.0 lag time (h) [2] [h],IC50 [3] [nM],Food intake reduction 0-24 h 30 nmol/kg (%) [1] [%],Food intake reduction 24-48 h 30 nmol/kg (%) [1] [%]
CC[C@H](C)[C@H](NC(=O)[C@H](C)NC(=O)CNC(=O)[C@H](Cc1ccccc1)NC(=O)[C@H](CC(N)=O)NC(=O)[C@@H]1CCCN1C(=O)[C@H](CO)NC(=O)[C@H](CO)NC(=O)[C@H](Cc1c[nH]cn1)NC(=O)[C@H](CCCNC(=N)N)NC(=O)[C@H](CC(C)C)NC(=O)[C@H](Cc1ccccc1)NC(=O)[C@H](Cc1c[nH]cn1)NC(=O)[C@H](C)NC(=O)[C@H](CC(C)C)NC(=O)[C@H](CCCNC(=N)N)NC(=O)[C@H](CCC(N)=O)NC(=O)[C@@H](NC(=O)[C@H](C)NC(=O)[C@@H]1CSSC[C@H](NC(=O)[C@@H](N)CCCCNC(=O)CC[C@H](NC(=O)CCCCCCCCCCCCCCCCCCC(=O)O)C(=O)O)C(=O)N[C@@H](CC(N)=O)C(=O)N[C@@H]([C@@H](C)O)C(=O)N[C@@H](C)C(=O)N[C@@H]([C@@H](C)O)C(=O)N1)[C@@H](C)O)C(=O)N1CCC[C@H]1C(=O)N[C@@H](CO)C(=O)N[C@@H](CO)C(=O)N[C@H](C(=O)N[C@@H](CC(N)=O)C(=O)N[C@H](C(=O)NCC(=O)N[C@@H](Cc1c[nH]cn1)C(=O)N[C@@H](CC(N)=O)C(=O)N[C@H](C(=O)N[C@@H](Cc1ccc(O)cc1)C(N)=O)[C@@H](C)O)C(C)C)[C@@H](C)O [Example 81] (H-K([γGlu-C20 diacid])CNTATCATQRLAHFLRHSSPNFGAIPSSTNVGHNTY-NH2; disulfide 2-7; N-terminus assumed),45,23.6,40,3
CC[C@H](C)[C@H](NC(=O)[C@H](C)NC(=O)CNC(=O)[C@H](Cc1ccccc1)NC(=O)[C@H](CC(N)=O)NC(=O)[C@@H]1CCCN1C(=O)[C@H](CO)NC(=O)[C@H](CO)NC(=O)[C@H](Cc1c[nH]cn1)NC(=O)[C@H](CCCNC(=N)N)NC(=O)[C@H](CC(C)C)NC(=O)[C@H](Cc1ccccc1)NC(=O)[C@H](CC(N)=O)NC(=O)[C@H](C)NC(=O)[C@H](CC(C)C)NC(=O)[C@H](CCCNC(=N)N)NC(=O)[C@H](CCC(N)=O)NC(=O)[C@@H](NC(=O)[C@H](C)NC(=O)[C@@H]1CSSC[C@H](NC(=O)[C@H](CCCCN)NC(=O)CC[C@H](NC(=O)CCCCCCCCCCCCCCCCCCC(=O)O)C(=O)O)C(=O)N[C@@H](CC(N)=O)C(=O)N[C@@H]([C@@H](C)O)C(=O)N[C@@H](C)C(=O)N[C@@H]([C@@H](C)O)C(=O)N1)[C@@H](C)O)C(=O)N1CCC[C@H]1C(=O)N[C@@H](CO)C(=O)N[C@@H](CO)C(=O)N[C@H](C(=O)N1CCC[C@H]1C(=O)N[C@H](C(=O)NCC(=O)N[C@@H](CO)C(=O)N[C@@H](CCC(=O)O)C(=O)N[C@H](C(=O)N[C@@H](Cc1ccc(O)cc1)C(N)=O)[C@@H](C)O)C(C)C)[C@@H](C)O [Example 28] ({C20 diacid-γGlu}-KCNTATCATQRLANFLRHSSPNFGAIPSSTPVGSETY-NH2; disulfide 2-7 (inferred)),40,12.5,49,38
CC[C@H](C)[C@H](NC(=O)[C@H](C)NC(=O)CNC(=O)[C@H](Cc1ccccc1)NC(=O)[C@H](CC(N)=O)NC(=O)[C@@H]1CCCN1C(=O)[C@H](CO)NC(=O)[C@H](CO)NC(=O)[C@H](Cc1c[nH]cn1)NC(=O)[C@H](CCCNC(=N)N)NC(=O)[C@H](CC(C)C)NC(=O)[C@H](Cc1ccccc1)NC(=O)[C@H](CCC(=O)O)NC(=O)[C@H](C)NC(=O)[C@H](CC(C)C)NC(=O)[C@H](CCCNC(=N)N)NC(=O)[C@H](CCC(N)=O)NC(=O)[C@@H](NC(=O)[C@H](C)NC(=O)[C@@H]1CSSC[C@H](NC(=O)[C@@H](N)CCCCNC(=O)CC[C@H](NC(=O)CC[C@H](NC(=O)CCCCCCCCCCCCCCCCCCC(=O)O)C(=O)O)C(=O)O)C(=O)N[C@@H](CC(N)=O)C(=O)N[C@@H]([C@@H](C)O)C(=O)N[C@@H](C)C(=O)N[C@@H]([C@@H](C)O)C(=O)N1)[C@@H](C)O)C(=O)N1CCC[C@H]1C(=O)N[C@@H](CO)C(=O)N[C@@H](CO)C(=O)N[C@H](C(=O)N[C@@H](CC(N)=O)C(=O)N[C@H](C(=O)NCC(=O)N1CCC[C@H]1C(=O)N[C@@H](CCC(=O)O)C(=O)N[C@H](C(=O)N[C@@H](Cc1ccc(O)cc1)C(N)=O)[C@@H](C)O)C(C)C)[C@@H](C)O [Example 106] (H-K([γGlu-γGlu-C20 diacid])CNTATCATQRLAEFLRHSSPNFGAIPSSTNVGPETY-NH2; disulfide 2-7; N-terminus assumed),33,2.14,63,69

# Further compounds by falling IC50 [3], results first:
ThT pH 4.0 lag time (h) [2] [h],IC50 [3] [nM],Compound,Food intake reduction 0-24 h 30 nmol/kg (%) [1] [%],Food intake reduction 24-48 h 30 nmol/kg (%) [1] [%]
45,88.9,CC[C@H](C)[C@H](NC(=O)[C@H](C)NC(=O)CNC(=O)[C@H](Cc1ccccc1)NC(=O)[C@H](CC(N)=O)NC(=O)[C@@H]1CCCN1C(=O)[C@H](CO)NC(=O)[C@H](CO)NC(=O)[C@H](Cc1c[nH]cn1)NC(=O)[C@H](CCCNC(=N)N)NC(=O)[C@H](CC(C)C)NC(=O)[C@H](Cc1ccccc1)NC(=O)[C@H](Cc1c[nH]cn1)NC(=O)[C@H](C)NC(=O)[C@H](CC(C)C)NC(=O)[C@H](CCCNC(=N)N)NC(=O)[C@H](CCC(N)=O)NC(=O)[C@@H](NC(=O)[C@H](C)NC(=O)[C@@H]1CSSC[C@H](NC(=O)[C@@H](N)CCCCNC(=O)COCCOCCNC(=O)CC[C@H](NC(=O)CCCCCCCCCCCCCCCCCCC(=O)O)C(=O)O)C(=O)N[C@@H](CC(N)=O)C(=O)N[C@@H]([C@@H](C)O)C(=O)N[C@@H](C)C(=O)N[C@@H]([C@@H](C)O)C(=O)N1)[C@@H](C)O)C(=O)N1CCC[C@H]1C(=O)N[C@@H](CO)C(=O)N[C@@H](CO)C(=O)N[C@H](C(=O)N[C@@H](CC(N)=O)C(=O)N[C@H](C(=O)NCC(=O)N[C@@H](CCCNC(=N)N)C(=O)N[C@@H](CC(N)=O)C(=O)N[C@H](C(=O)N[C@@H](Cc1ccc(O)cc1)C(N)=O)[C@@H](C)O)C(C)C)[C@@H](C)O [Example 84] (H-K([AEEA-γGlu-C20 diacid])CNTATCATQRLAHFLRHSSPNFGAIPSSTNVGRNTY-NH2; disulfide 2-7 (inferred); N-terminus assumed),10,0
45,53.5,CC[C@H](C)[C@H](NC(=O)[C@H](C)NC(=O)CNC(=O)[C@H](Cc1ccccc1)NC(=O)[C@H](CC(N)=O)NC(=O)[C@@H]1CCCN1C(=O)[C@H](CO)NC(=O)[C@H](CO)NC(=O)[C@H](Cc1c[nH]cn1)NC(=O)[C@H](CCCNC(=N)N)NC(=O)[C@H](CC(C)C)NC(=O)[C@H](Cc1ccccc1)NC(=O)[C@H](CCCNC(=N)N)NC(=O)[C@H](C)NC(=O)[C@H](CC(C)C)NC(=O)[C@H](CCCNC(=N)N)NC(=O)[C@H](CCC(N)=O)NC(=O)[C@@H](NC(=O)[C@H](C)NC(=O)[C@@H]1CSSC[C@H](NC(=O)[C@@H](N)CCCCNC(=O)CC[C@H](NC(=O)CCCCCCCCCCCCCCCCCCC(=O)O)C(=O)O)C(=O)N[C@@H](CC(N)=O)C(=O)N[C@@H]([C@@H](C)O)C(=O)N[C@@H](C)C(=O)N[C@@H]([C@@H](C)O)C(=O)N1)[C@@H](C)O)C(=O)N1CCC[C@H]1C(=O)N[C@@H](CO)C(=O)N[C@@H](CO)C(=O)N[C@H](C(=O)N[C@@H](CC(N)=O)C(=O)N[C@H](C(=O)NCC(=O)N1CCC[C@H]1C(=O)N[C@@H](CC(N)=O)C(=O)N[C@H](C(=O)N[C@@H](Cc1ccc(O)cc1)C(N)=O)[C@@H](C)O)C(C)C)[C@@H](C)O [Example 65] (H-K([γGlu-C20 diacid])CNTATCATQRLARFLRHSSPNFGAIPSSTNVGPNTY-NH2; disulfide 2-7 (inferred); N-terminus assumed),10,0
22,17.2,CC[C@H](C)[C@H](NC(=O)[C@H](C)NC(=O)CNC(=O)[C@H](Cc1ccccc1)NC(=O)[C@H](CC(N)=O)NC(=O)[C@@H]1CCCN1C(=O)[C@H](CO)NC(=O)[C@H](CO)NC(=O)[C@H](Cc1c[nH]cn1)NC(=O)[C@H](CCCNC(=N)N)NC(=O)[C@H](CC(C)C)NC(=O)[C@H](Cc1ccccc1)NC(=O)[C@H](CC(N)=O)NC(=O)[C@H](C)NC(=O)[C@H](CC(C)C)NC(=O)[C@H](CCCNC(=N)N)NC(=O)[C@H](CCC(N)=O)NC(=O)[C@@H](NC(=O)[C@H](C)NC(=O)[C@@H]1CSSC[C@H](NC(=O)[C@@H](N)CCCCNC(=O)COCCOCCNC(=O)CC[C@H](NC(=O)CCCCCCCCCCCCCCCCCCC(=O)O)C(=O)O)C(=O)N[C@@H](CC(N)=O)C(=O)N[C@@H]([C@@H](C)O)C(=O)N[C@@H](C)C(=O)N[C@@H]([C@@H](C)O)C(=O)N1)[C@@H](C)O)C(=O)N1CCC[C@H]1C(=O)N[C@@H](CO)C(=O)N[C@@H](CO)C(=O)N[C@H](C(=O)N[C@@H](CC(N)=O)C(=O)N[C@H](C(=O)NCC(=O)N[C@@H](Cc1c[nH]cn1)C(=O)N[C@@H](CC(N)=O)C(=O)N[C@H](C(=O)N[C@@H](Cc1ccc(O)cc1)C(N)=O)[C@@H](C)O)C(C)C)[C@@H](C)O [Example 76] (H-K([AEEA-γGlu-C20 diacid])CNTATCATQRLANFLRHSSPNFGAIPSSTNVGHNTY-NH2; disulfide 2-7; N-terminus assumed),31,2
